Structures can show the parent of a compound that is named as a salt. Where two headings read alike, the source gives them in different places.
Columns and labels:
[1] = biological target: T1, HO-2 (rat brain) (Rattus norvegicus, UniProt P23711); assay: HO enzymatic activity, rat brain microsomal fraction (CO formation from methemalbumin); type: biochemical
T1 construct: brain microsomes were used as a source of HO-2; from tissue; host or cells: brain microsomal fraction of adult male Sprague-Dawley rats
T1 sequence (P23711 1-315): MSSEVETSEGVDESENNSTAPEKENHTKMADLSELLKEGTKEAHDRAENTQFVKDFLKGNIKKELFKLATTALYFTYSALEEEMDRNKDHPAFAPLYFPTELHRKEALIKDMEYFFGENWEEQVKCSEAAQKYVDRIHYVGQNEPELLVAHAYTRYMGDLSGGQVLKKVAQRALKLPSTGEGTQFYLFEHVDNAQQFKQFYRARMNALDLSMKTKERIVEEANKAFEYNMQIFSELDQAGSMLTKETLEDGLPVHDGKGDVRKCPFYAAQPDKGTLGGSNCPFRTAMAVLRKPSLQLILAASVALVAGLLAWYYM
Procedure: (§1) Incubations for HO activity analysis were done under conditions for which the rate of CO formation (pmol CO×min^−1×mg protein^−1) was linear with respect to time and microsomal protein concentration. Briefly, reaction mixtures (150 μL) consisting of 100 mM phosphate buffer (pH 7.4), 50 μM methemalbumin, and 1 mg/mL protein were pre-incubated with the inhibitors at final concentrations ranging from 0.1-100 μM for 10 minutes at 37° C. Reactions were initiated by adding NADPH at a final concentration of 1 mM and incubations were performed for an additional 15 minutes at 37° C.
(§2) Incubations for HO activity analysis were done under conditions for which the rate of CO formation (pmol CO/mg protein/minute) was linear with respect to time and microsomal protein concentration. Briefly, reaction mixtures (150 μL) consisting of 100 mM phosphate buffer (pH 7.4), 50 μM methemalbumin and 1 mg/mL protein were pre-incubated with the vehicle (ethanol or water in which the inhibitors were dissolved), or inhibitors at final concentrations ranging from 0.1-1000 μM for 10 minutes at 37° C. Reactions were initiated by adding β-NADPH at a final concentration of 1 mM and incubations were carried out for an additional 15 minutes at 37° C. Reactions were stopped by instantly freezing the reaction mixture on pulverized dry ice and CO formation was measured by gas chromatography using a TA 3000R Process Gas Analyzer (Trace Analytical/Ametek, Newark, Del., USA).
(§3) The values on the abscissa represent the decimal logarithm of the inhibitor's concentration (in μM), whereas the values of the activity on the ordinate are expressed as a percentage of the control experiments without inhibitor.
(§4) The IC50 values for the replicate experiments were employed to generate the reported standard deviation value.

[2] = biological target: T2, HO-1 (rat spleen) (Rattus norvegicus, UniProt P06762); assay: HO enzymatic activity, rat spleen microsomal fraction (CO formation from methemalbumin); type: biochemical
T2 construct: Spleen microsomes were used as a source of HO-1; from tissue; host or cells: spleen microsomal fraction of adult male Sprague-Dawley rats
T2 sequence (P06762 1-289): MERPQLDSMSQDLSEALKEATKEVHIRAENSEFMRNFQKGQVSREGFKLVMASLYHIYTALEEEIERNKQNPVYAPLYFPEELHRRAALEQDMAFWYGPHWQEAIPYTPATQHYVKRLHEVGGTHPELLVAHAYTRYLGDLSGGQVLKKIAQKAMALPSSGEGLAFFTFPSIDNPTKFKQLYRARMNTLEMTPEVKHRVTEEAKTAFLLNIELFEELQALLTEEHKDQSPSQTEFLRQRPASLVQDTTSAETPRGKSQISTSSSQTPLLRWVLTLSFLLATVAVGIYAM
Procedure: as §1, §2, §3, §4

[3] = IC50 HO-2 (rat brain)/μM), CO formation from methemalbumin, mean ± SD of replicate experiments
[4] = CO formation from methemalbumin, mean ± SD of replicate experiments, read-out: IC50 HO-1 (rat spleen/μM)
[5] = average ± SD of replicate experiments, read-out: IC50 HO-1 (rat spleen/μM)
[6] = average ± SD of replicate experiments, read-out: IC50 HO-2 (rat brain)/μM)
[7] = IC50 HO-1 (rat spleen/μM), average ± SD of replicate experiments
[8] = IC50 HO-2 (rat brain)/μM), average ± SD of replicate experiments

Cl.FC(F)(F)c1ccc(CCCCn2ccnc2)cc1
melting point: 110 to 111 °C

Cl.OC(CCc1ccc(I)cc1)Cn1ccnc1 (racemic) [QC-74, (±)-1-(1H-Imidazol-1-yl)-4-(4-iodophenyl)-2-butanol hydrochloride]
IC50 [1, 3]: 2 ± 1 µM
melting point: 196 to 197 °C

Cl.OC(CCc1ccccc1)Cn1ccnc1 (racemic) [QC-76, (±)-1-(1H-imidazol-1-yl)-4-phenyl-2-butanol hydrochloride]
IC50 [2, 4]: 6 ± 1 µM
IC50 [1, 3]: 16 ± 8 µM
melting point: 56 to 57 °C

Cl.OC(CCc1ccc(Br)cc1)Cn1ccnc1 (racemic) [QC-79, (±)-4-(4-Bromophenyl)-1-(1H-imidazol-1-yl)-2-butanol hydrochloride]
IC50 [2, 4]: 0.1 ± 0.1 µM
IC50 [1, 3]: 2.6 ± 0.5 µM
melting point: 174 to 175 °C

COc1ccc(OCC2CO[C@@](CCc3ccc(Cl)cc3)(Cn3ccnc3)O2)cc1.Cl (stereo in doubt) [QC-132, (2R,4S)-1-[2-[2-(4-Chlorophenyl)ethyl]-4-(4-methoxyphenoxymethyl)-[1,3]dioxolan-2-ylmethyl]-1H-imidazole hydrochloride]
melting point: 128 to 129 °C

Cl.Ic1ccc(CCC2(Cn3ccnc3)OCCO2)cc1 [QC-78, 1-((2-(2-(4-Iodophenyl)ethyl)-1,3-dioxolan-2-yl)methyl)-1H-imidazole hydrochloride]
IC50 ([2]; IC50 HO-1 (rat spleen/μM), CO formation from methemalbumin, mean ± SD of replicate experiments): 4 ± 1 µM
melting point: 241 to 243 °C (dec.)

Cl.O=C(Cn1ccnc1)C12CC3CC(CC(C3)C1)C2 [QC-82, 1-(adamantan-1-yl)-2-imidazol-1-yl-ethanone hydrochloride]
IC50 [2, 4]: 3 ± 1 µM
IC50 [1, 3]: > 100 µM
melting point: 261 to 262 °C

Cl.Clc1ccc(CCCCn2ccnc2)cc1 [QC-105, 1-[4-(4-chlorophenyl)butyl]-1H-imidazole hydrochloride]
IC50 [2, 4]: 0.5 ± 0.3 µM
melting point: 121 to 122 °C

Cl.Clc1ccc(CC[C@@]2(Cn3ccnc3)OC[C@@H](CSc3ccc4ccccc4c3)O2)cc1 [QC-121, (2R,4S)-1-[2-[2-(4-Chlorophenyl)ethyl]-4-(naphthalen-2-ylsulfanylmethyl)-[1,3]dioxolan-2-ylmethyl]-1H-imidazole hydrochloride]
melting point: 156 to 157 °C

Cl.Clc1ccc(CC[C@@]2(Cn3ccnc3)OC[C@@H](COc3ccc(-c4ccccc4)cc3)O2)cc1 [QC-129]
melting point: 162 to 163 °C

CCN1CCN(c2nc3ccccc3[nH]2)CC1 [QC-148, 2-(4-Ethyl-piperazin-1-yl)-1H-benzoimidazole dihydrochloride hemihydrate]
IC50 [2, 5]: > 100 µM
IC50 [1, 6]: > 100 µM

c1ccc2[nH]c(NC3CCC(c4cnc[nH]4)CC3)nc2c1 (stereo not shown) [QC-149, (1H-Benzoimidazol-2-yl)-[4-(3H-imidazol-4-yl)-cyclohexyl]-amine dihydrochloride]
IC50 [2, 5]: > 200 µM
IC50 [1, 6]: > 200 µM

O=C(CCc1ccccc1)Cn1cnc([N+](=O)[O-])n1 [QC-152, 1-(3-Nitro-[1,2,4]triazol-1-yl)-4-phenyl-butan-2-one]
IC50 [2, 5]: > 100 µM
IC50 [1, 6]: > 100 µM

N#Cc1ncn(CC(=O)CCc2ccccc2)c1C#N [QC-154, 1-(2-Oxo-4-phenylbutyl)-1H-imidazole-4,5-dicarbonitrile hydrochloride]
IC50 [2, 7]: > 100 µM
IC50 [1, 8]: > 100 µM

CS(=O)(=O)c1ncn(CC(=O)CCc2ccccc2)n1 [QC-155, 1-(3-Methanesulfonyl-[1,2,4]triazol-1-yl)-4-phenyl-butan-2-one]
IC50 [2, 5]: > 100 µM
IC50 [1, 6]: > 100 µM

CS(=O)(=O)c1ncnn1CC(=O)CCc1ccccc1 [QC-156, 1-(5-Methanesulfonyl-[1,2,4]triazol-1-yl)-4-phenyl-butan-2-one]
IC50 [2, 5]: > 100 µM
IC50 [1, 6]: > 100 µM

O=C(Cn1cncn1)c1ccccc1 [QC-157, 1-Phenyl-2-[1,2,4]triazol-1-yl-ethanone hydrochloride]
IC50 [2, 7]: 12 ± 0.9 µM
IC50 [1, 8]: > 100 µM

O=C(Cn1cncn1)c1ccc(Cl)cc1 [QC-158, 1-(4-Chlorophenyl)-2-[1,2,4]triazol-1-yl-ethanone hydrochloride]
IC50 [2, 7]: 2.2 ± 0.5 µM
IC50 [1, 8]: 122 ± 0.1 µM

O=C(Cn1ccnc1)c1ccc([N+](=O)[O-])cc1 [QC-159, 2-Imidazol-1-yl-1-(4-nitro-phenyl)-ethanone hydrochloride]
IC50 [2, 7]: 2.5 ± 0.2 µM
IC50 [1, 8]: > 100 µM

O=C(CCc1ccccc1)Cn1ccnc1[N+](=O)[O-] [QC-160, 1-(2-Nitro-imidazol-1-yl)-4-phenyl-butan-2-one hydrochloride]
IC50 [2, 7]: > 100 µM
IC50 [1, 8]: > 100 µM

O=C(Cn1ccnc1)c1ccc(Br)cc1 [QC-161, 1-(4-Bromophenyl)-2-imidazol-1-yl-ethanone hydrochloride]
IC50 [2, 7]: 3.2 ± 0.8 µM
IC50 [1, 8]: 14 ± 2 µM

O=C(Cn1ccnc1)c1ccc2ccccc2c1 [QC-162, 2-Imidazol-1-yl-1-napthalen-2-yl-ethanone hydrochloride]
IC50 [2, 5]: 1.9 ± 0.1 µM
IC50 [1, 6]: 12 ± 0.05 µM

COc1ccc(C(=O)Cn2ccnc2)cc1 [QC-163, 2-Imidazol-1-yl-1-(4-methoxyphenyl)-ethanone hydrochloride]
IC50 [2, 5]: 32 ± 4 µM
IC50 [1, 8]: 62 ± 3 µM

Cc1ccc(C(=O)Cn2ccnc2)cc1 [QC-165, 2-Imidazol-1-yl-1-p-tolyl-ethanone hydrochloride]
IC50 [2, 7]: 17 ± 4 µM
IC50 [1, 8]: 69 ± 16 µM

O=C(Cn1ccnc1)c1ccc(-c2ccccc2)cc1 [QC-166, 1-Biphenyl-4-yl-2-imidazol-1-yl-ethanone hydrochloride]
IC50 [2, 7]: 2.1 ± 0.7 µM
IC50 [1, 8]: 3 ± 0.7 µM

CCOC(=O)Cc1nnn(CC(=O)CCc2ccccc2)n1 [QC-178, [2-(2-Oxo-4-phenyl-butyl)-2H-tetrazol-5-yl]-acetic acid ethyl ester]
IC50 [2, 5]: > 100 µM
IC50 [1, 6]: > 100 µM

NC[C@@H]1CO[C@@](CCc2ccccc2)(Cn2ccnc2)O1 [QC-190, {2-[2-(phenyl)-ethyl]-2-imidazol-1-ylmethyl-[1,3]dioxolan-4-yl}-methylamine dihydrochloride]
IC50 [2, 5]: 21 ± 3 µM
IC50 [1, 6]: > 100 µM

N#CSC[C@@H]1CO[C@@](CCc2ccc(Cl)cc2)(Cn2ccnc2)O1 [QC-197, 1-{2-[2-(4-Chloro-phenyl)-ethyl]-4-thiocyanatomethyl-[1,3]dioxolan-2-ylmethyl}-1H-imidazole hydrochloride]
IC50 [2, 7]: 3 ± 0.9 µM
IC50 [1, 8]: > 100 µM

Brc1ccc(CCCCn2ccnc2)cc1 [QC-199, 1-[4-(4-Bromo-phenyl)-butyl]-1H-imidazole hydrochloride]
IC50 [2, 7]: 0.25 ± 0.02 µM
IC50 [1, 8]: 6.7 ± 0.3 µM

O=C(CCc1ccc(O)cc1)Cn1ccnc1 [QC-206, 4-(4-Hydroxyphenyl)-1-(1H-imidazol-1-yl)butan-2-one hydrochloride]
IC50 [2, 5]: 382 µM
IC50 [1, 6]: 251 µM

O=C(CCn1ccnc1)c1ccccc1 [QC-242, 3-(1H-Imidazol-1-yl)-1-phenyl-propan-1-one hydrochloride]
IC50 [2, 7]: 79 µM
IC50 [1, 8]: > 100 µM

c1ccc(C2(Cn3ccnc3)OCCO2)cc1 [QC-246, 1-(2-Phenyl-[1,3]dioxolan-2-ylmethyl)-1H-imidazole hydrochloride]
IC50 [2, 7]: 32 ± 3 µM
IC50 [1, 8]: > 100 µM

c1ccc(C2(Cn3cncn3)OCCO2)cc1 [QC-254, 1-(2-Phenyl-[1,3]dioxolan-2-ylmethyl-1H-[1,2,4]triazole hydrochloride]
IC50 [2, 7]: 144 ± 15 µM
IC50 [1, 8]: > 100 µM

(2R,4R)-2-[2-(4-phenyl)ethyl]-2-[(1H-imidazol-1-yl)methyl]-4-methyl-1,3-dioxolane hydrochloride [QC-35]
IC50 [2, 4]: 2 ± 1 µM
IC50 ([1]; CO formation from methemalbumin, mean ± SD of replicate experiments, read-out: IC50 HO-2 (rat brain)/μM)): > 43 µM
